From ChEMBL document CHEMBL1201862, “PubChem BioAssay data set” (2004)
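Cells were grown in 96-well plates and exposed to each compound for 48 hours at five concentrations; endpoints were interpolated linearly between bracketing concentrations, or set to the highest concentration if not reached. GI50 = concentration required for 50% inhibition of growth.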 Active and inactive are the calls of the source. No stated cut-off is given here; in the data, active = GI50 up to about 1.1 µM and inactive = higher.

Assays:
Assay in all cases: DTP human tumour cell line panel, 48 h
HT-29 = tested on: HT-29
RPMI-8226 = tested on: RPMI-8226
Malme-3M = tested on: Malme-3M
SNB-19 = tested on: SNB-19
NCI-H23 = tested on: NCI-H23
RXF 393 = tested on: RXF 393
786-0 = tested on: 786-0
UO-31 = tested on: UO-31
M14 = tested on: M14
K562 = tested on: K562
OVCAR-4 = tested on: OVCAR-4
SN12C = tested on: SN12C
SR = tested on: SR
HOP-62 = tested on: HOP-62
COLO 205 = tested on: COLO 205
NCI-H226 = tested on: NCI-H226
HCT-15 = tested on: HCT-15
SK-MEL-28 = tested on: SK-MEL-28

| Structure (SMILES) | GI50 (HT-29) | GI50 (RPMI-8226) | GI50 (Malme-3M) | GI50 (SNB-19) | GI50 (NCI-H23) | GI50 (RXF 393) | GI50 (786-0) | GI50 (UO-31) | GI50 (M14) | GI50 (K562) | GI50 (OVCAR-4) | GI50 (SN12C) | GI50 (SR) | GI50 (HOP-62) | GI50 (COLO 205) | GI50 (NCI-H226) | GI50 (HCT-15) | GI50 (SK-MEL-28) |
| --- | --- | --- | --- | --- | --- | --- | --- | --- | --- | --- | --- | --- | --- | --- | --- | --- | --- | --- |
| CCOc1cccc2nc3cccc(C(=O)NCCN(C)C)c3nc12 | 0.605 µM (active) | 0.948 µM (active) | 0.995 µM (active) | 1.89 µM (inactive) | 1.39 µM (inactive) | 1.59 µM (inactive) | 2.51 µM (inactive) | 2.19 µM (inactive) | 2.19 µM (inactive) | 0.47 µM (active) | 1.19 µM (inactive) | 0.719 µM (active) | 0.305 µM (active) | 0.469 µM (active) | 0.632 µM (active) | 0.506 µM (active) | 1.08 µM | 1.93 µM (inactive) |
| CSc1ccc(OCC2OC2O)cc1 (stereo unspecified) | 32.3 µM (inactive) | 30.8 µM (inactive) | 98.2 µM (inactive) | > 92.5 µM (inactive) | 42.5 µM (inactive) | > 63.7 µM (inactive) | 66.4 µM (inactive) | 51.6 µM (inactive) | 49.5 µM (inactive) | 52.8 µM (inactive) | 30.8 µM (inactive) | 62.2 µM (inactive) | 45.2 µM (inactive) | > 100 µM (inactive) | 16.5 µM (inactive) | 36.8 µM (inactive) | 23.5 µM |  |
| Cc1ccc([N+](=O)[O-])cc1NC(=O)C(=O)Cc1cc(=O)oc2cc(O)ccc12 | > 100 µM (inactive) | 32.1 µM (inactive) | > 100 µM (inactive) | > 100 µM (inactive) | > 100 µM (inactive) | 28.1 µM (inactive) | > 100 µM (inactive) | > 100 µM (inactive) | > 100 µM (inactive) | 46.3 µM (inactive) | > 100 µM (inactive) | > 100 µM (inactive) | 32.4 µM (inactive) | > 100 µM (inactive) | 42.8 µM (inactive) | > 100 µM (inactive) | > 100 µM | 33.5 µM (inactive) |
| COc1cc2c(c(OC)c1OC)-c1ccc(SC)c(=O)cc1[C@@H](NC(=O)c1ccc(C#N)cc1)CC2 | < 0.01 µM (active) | < 0.01 µM (active) | < 0.01 µM (active) | < 0.01 µM (active) | < 0.01 µM (active) | < 0.01 µM (active) | < 0.01 µM (active) | < 0.01 µM (active) | < 0.01 µM (active) | < 0.01 µM (active) | < 0.01 µM (active) | < 0.01 µM (active) | < 0.01 µM (active) | < 0.01 µM (active) | < 0.01 µM (active) | < 0.01 µM (active) | < 0.01 µM | > 79.8 µM (inactive) |
| CCC12C=CCN3CC[C@]4(C(=C(C(=O)OC)[C@@H]1Nc1ncnc5c1ncn5C1OC(COC(C)=O)C(OC(C)=O)C1OC(C)=O)Nc1ccccc14)C32 (stereo partly specified) | 2.23 µM (inactive) | 3.27 µM (inactive) | 4.9 µM (inactive) | 5.62 µM (inactive) | 1.97 µM (inactive) | 2 µM (inactive) | 1.94 µM (inactive) | 5.62 µM (inactive) | 2.62 µM (inactive) | 3.18 µM (inactive) | 2.42 µM (inactive) | 2.01 µM (inactive) | 2.34 µM (inactive) | 2.84 µM (inactive) | 1.88 µM (inactive) | 2.36 µM (inactive) | 3.04 µM | 3.52 µM (inactive) |
| COC(=O)/C([Se]c1c(C)cc(C)cc1C)=C(/[Se]c1c(C)cc(C)cc1C)C(=O)OC | 91.2 µM (inactive) | 76 µM (inactive) | > 100 µM (inactive) | > 100 µM (inactive) | > 100 µM (inactive) | > 100 µM (inactive) | > 100 µM (inactive) | > 100 µM (inactive) | > 100 µM (inactive) | > 100 µM (inactive) | > 100 µM (inactive) | > 100 µM (inactive) | 39.9 µM (inactive) | > 100 µM (inactive) | > 100 µM (inactive) | > 100 µM (inactive) | 81.3 µM |  |
